Measured values from US20250144107A1, “USE OF A PIKFYVE INHIBITOR IN COMBINATION WITH IMMUNOTHERAPY” (The Regents of the University of Michigan, priority 2023, published 2025).

What was measured:
[1] = test system: tumor infiltrating DCs in B16F10 tumors; assay: Tumor infiltrating DCs in B16F10 tumors of PIKfyve KO or WT mice; type: in vivo; conditions: for percentage of cDC1s: 30 mg/kg daily
Experimental: FIG. 15E is a box and whisker plot of the XCR1 median fluorescent intensity by % cDC1 subset in B16F10 tumor model treated with vehicle or apilimod, 30 mg/kg daily.
FIG. 15F is a series of three box and whisker plot of the XCR1 median fluorescent intensity by all DCs, cDC1 or cDC2 subset in PIKfyve KO mice or WT mice treated with vehicle or apilimod, 30 mg/kg daily.
FIG. 23F is a box and whisker plot of the % cDC2 of all DC cells in PIKfyve KO mice or WT mice treated with vehicle or apilimod, 30 mg/kg daily.
FIG. 23G is a series of three box and whisker plots of the SIRP1α median fluorescent intensity by all DC, cDC1 or cDC2 subset in PIKfyve KO mice or WT mice treated with vehicle or apilimod, 30 mg/kg daily.

subcutaneous MC38 tumors = assay: Subcutaneous MC38 tumor model; type: in vivo, mice
Experimental: FIG. 16A is a line graph of the subcutaneous tumor volume of MC38 tumors in mice treated with vehicle or apilimod, 30 mg/kg×5 days/week.
FIG. 16B is a series of two scatter plots of the percent IFNγ^+ of CD8^+ T cells in vehicle or apilimod-treated MC38 tumors.
FIG. 16C is a line graph of the subcutaneous tumor volume of MC38 tumors in mice treated with vehicle versus apilimod, 30 mg/kg×5 days/week, in wild-type or Batf3^−/− mice.
FIG. 26A is a bar graph of the percent IFNγ^+ of CD8^+ T cells in vehicle or apilimod-treated, 30 mg/kg×5 days/week MC38 tumors.
FIG. 26B is a line graph of the subcutaneous tumor volume of MC38 tumors treated with vehicle versus apilimod, 30 mg/kg×5 days/week, in NSG™ mice.
FIG. 26C is a line graph of the subcutaneous tumor volume of MC38 tumors in mice treated with vehicle versus apilimod, 30 mg/kg×5 days/week, and additionally treated with IgG2a or αIL-12p40 blocking antibody.
FIG. 26D is a line graph of the subcutaneous tumor volume of MC38 tumors in mice treated with vehicle versus apilimod, 30 mg/kg×5 days/week, and additionally treated with IgG1 or αIFNγ blocking antibody.

B16F10-OVA tumors = assay: B16F10-OVA tumor model with PolyI:C adjuvant; type: in vivo, mice
Experimental: FIG. 16F is a series of four line graphs of the Individual growth curves of subcutaneous B16F10-OVA tumor volume following 21 days of pre-treatment with vehicle versus apilimod, 30 mg/kg daily, with or without subcutaneous injection of water versus PolyI:C, 100 μg on Day 1 and Day 14.
FIG. 16H is a series of four line graphs of the Individual growth curves of subcutaneous B16F10-OVA tumor volume in mice treated with vehicle or apilimod, 30 mg/kg daily, with or without a subcutaneous injection of water versus PolyI:C, 100 μg once weekly.
FIG. 26I is a line graph of the subcutaneous tumor volume of B16F10-OVA tumors following 21 days of pre-treatment with vehicle versus apilimod, 30 mg/kg×5 days/week, with or without subcutaneous injection of water versus PolyI:C, 100 μg on Day 1 and Day 14.
FIG. 26J is a line graph of the subcutaneous tumor volume of B16F10-OVA tumors in mice treated with vehicle or apilimod, 30 mg/kg×5 days/week, with or without subcutaneous injection of water versus PolyI:C, 100 μg once weekly.

[2] = Overall comparison across preclinical models; type: in vivo; conditions: in many of models; dose of apilimod higher than ESK981
Source text: This could be, at least partially, explained by the reported instability of apilimod See, e.g., Ikonomov, O. C. et al., Toxicol. Appl. Pharmacol. 2019; 383:114771.

## Cc1cccc(/C=N/Nc2cc(N3CCOCC3)nc(OCCc3ccccn3)n2)c1 [apilimod, N-[(E)-(3-methylphenyl)methylideneamino]-6-morpholin-4-yl-2-(2-pyridin-2-ylethoxy)pyrimidin-4-amine]
[1]; KO mice
  percentage of cDC1s: no additional increase
[1]; WT and KO mice
  total surface XCR1 expression, differences between groups compared with cDC1 percentage: the same
[1]; WT mice
  percentage of cDC1s: increased
[1]; between any groups
  percentage of cDC2s or total surface SIRP1α expression: no changes
Subcutaneous MC38 tumors; Batf3−/− vs WT mice
  efficacy in Batf3−/− mice: loss of apilimod efficacy
Subcutaneous MC38 tumors; WT mice
  percentage of intratumoral IFNγ+CD8+ T cells: increased
Subcutaneous MC38 tumors; WT mice, 30 mg/kg x 5 days/week, vs vehicle
  MC38 tumor growth: reduced
Subcutaneous MC38 tumors; immune-deficient NSG mice
  efficacy in NSG mice: lost
Subcutaneous MC38 tumors; vs isotype control
  efficacy with neutralizing antibody against IFNγ: reduced
  efficacy with neutralizing antibody against IL-12: reduced
B16F10-OVA tumors; 21 days pre-treatment, combination of apilimod and PolyI:C, vs control or either agent alone
  subsequent tumor growth: decrease
B16F10-OVA tumors; treatment after inoculation, combination of apilimod and PolyI:C
  tumor growth inhibition: further potentiated
B16F10-OVA tumors; treatment after inoculation, each agent alone
  tumor growth: modest tumor growth inhibition
[2]
  efficacy relative to ESK981: weaker than ESK981
